Assay results published in the NIST ThermoML archive (doi:10.1016/j.jct.2010.10.016).
± gives the expanded uncertainty stated by the source.

Experiment: xn = mol fraction of the nth substance listed
Conditions: 101 kPa, Liquid; for viscosity: Capillary tube (Ostwald / Ubbelohde) method; for mass density: Pycnometric method; for speed of sound: Resonance method

CCCCOCCO [2-butoxyethan-1-ol] + C[N+](=O)[O-]
Conditions	mass density [kg/m3]	speed of sound [m/s]	viscosity [mPa·s]
293.15 K, x2 = 0	901.19 ± 0.46	1323.9 ± 2.3	3.239 ± 0.029
293.15 K, x2 = 0.05	905.83 ± 0.47	–	–
293.15 K, x2 = 0.0507	–	1322.4 ± 2.3	–
293.15 K, x2 = 0.0557	–	–	3.019 ± 0.027
293.15 K, x2 = 0.0999	910.77 ± 0.48	–	–
293.15 K, x2 = 0.1001	–	1321.8 ± 2.3	–
293.15 K, x2 = 0.106	–	–	2.815 ± 0.025
293.15 K, x2 = 0.1974	–	–	2.451 ± 0.021
293.15 K, x2 = 0.2	921.75 ± 0.5	–	–
293.15 K, x2 = 0.2003	–	1318.8 ± 2.3	–
293.15 K, x2 = 0.3	934.29 ± 0.52	–	–
293.15 K, x2 = 0.3003	–	1316.1 ± 2.3	–
293.15 K, x2 = 0.3083	–	–	2.031 ± 0.017
293.15 K, x2 = 0.4	948.84 ± 0.54	–	–
293.15 K, x2 = 0.4005	–	1313.7 ± 2.3	–
293.15 K, x2 = 0.4014	–	–	1.716 ± 0.014
293.15 K, x2 = 0.4487	–	–	1.571 ± 0.013
293.15 K, x2 = 0.4997	–	–	1.432 ± 0.012
293.15 K, x2 = 0.5	966.21 ± 0.57	–	–
293.15 K, x2 = 0.5002	–	1312 ± 2.3	–
293.15 K, x2 = 0.5492	–	–	1.307 ± 0.011
293.15 K, x2 = 0.5947	–	–	1.203 ± 0.01
293.15 K, x2 = 0.6	987.24 ± 0.6	1311.8 ± 2.3	–
293.15 K, x2 = 0.699	–	–	0.996 ± 0.009
293.15 K, x2 = 0.7	1013.09 ± 0.64	1313.7 ± 2.3	–
293.15 K, x2 = 0.7999	–	1318.2 ± 2.4	–
293.15 K, x2 = 0.8002	1045.18 ± 0.7	–	–
293.15 K, x2 = 0.8012	–	–	0.838 ± 0.008
293.15 K, x2 = 0.8981	–	–	0.72 ± 0.007
293.15 K, x2 = 0.8999	1085.39 ± 0.7	1326.4 ± 2.4	–
293.15 K, x2 = 0.9475	–	–	0.679 ± 0.007
293.15 K, x2 = 0.95	–	1332.4 ± 2.4	–
293.15 K, x2 = 0.9503	1109.89 ± 0.69	–	–
298.15 K, x2 = 0	896.29 ± 0.45	1306.8 ± 2.3	–
298.15 K, x2 = 0.05	900.85 ± 0.45	–	–
298.15 K, x2 = 0.0507	–	1305.6 ± 2.3	–
298.15 K, x2 = 0.0999	905.68 ± 0.46	–	–
298.15 K, x2 = 0.1001	–	1304.5 ± 2.3	–
298.15 K, x2 = 0.2	916.48 ± 0.47	–	–
298.15 K, x2 = 0.2003	–	1302.2 ± 2.3	–
298.15 K, x2 = 0.3	928.9 ± 0.49	–	–
298.15 K, x2 = 0.3003	–	1299.6 ± 2.3	–
298.15 K, x2 = 0.4	943.34 ± 0.5	–	–
298.15 K, x2 = 0.4005	–	1297.2 ± 2.3	–
298.15 K, x2 = 0.5	960.53 ± 0.52	–	–
298.15 K, x2 = 0.5002	–	1295.5 ± 2.3	–
298.15 K, x2 = 0.6	981.35 ± 0.54	1295.2 ± 2.3	–
298.15 K, x2 = 0.7	1006.9 ± 0.57	1296.8 ± 2.3	–
298.15 K, x2 = 0.7999	–	1300.9 ± 2.3	–
298.15 K, x2 = 0.8002	1038.68 ± 0.6	–	–
298.15 K, x2 = 0.8999	1078.61 ± 0.64	1308.5 ± 2.4	–
298.15 K, x2 = 0.95	–	1313.8 ± 2.4	–
298.15 K, x2 = 0.9503	1103.01 ± 0.66	–	–
298.45 K, x2 = 0	–	–	2.825 ± 0.026
298.45 K, x2 = 0.0506	–	–	2.654 ± 0.025
298.45 K, x2 = 0.1012	–	–	2.483 ± 0.023
298.45 K, x2 = 0.2015	–	–	2.165 ± 0.02
298.45 K, x2 = 0.2997	–	–	1.873 ± 0.017
298.45 K, x2 = 0.4047	–	–	1.581 ± 0.014
298.45 K, x2 = 0.4498	–	–	1.464 ± 0.013
298.45 K, x2 = 0.5008	–	–	1.339 ± 0.012
298.45 K, x2 = 0.5481	–	–	1.234 ± 0.011
298.45 K, x2 = 0.5976	–	–	1.131 ± 0.01
298.45 K, x2 = 0.6984	–	–	0.943 ± 0.009
298.45 K, x2 = 0.7981	–	–	0.8 ± 0.008
298.45 K, x2 = 0.8986	–	–	0.689 ± 0.007
298.45 K, x2 = 0.9394	–	–	0.655 ± 0.007
303.15 K, x2 = 0	892.35 ± 0.45	1290.6 ± 2.3	2.449 ± 0.024
303.15 K, x2 = 0.05	896.7 ± 0.46	–	–
303.15 K, x2 = 0.0507	–	1289.5 ± 2.3	–
303.15 K, x2 = 0.0522	–	–	2.307 ± 0.023
303.15 K, x2 = 0.0999	901.4 ± 0.47	–	–
303.15 K, x2 = 0.1001	–	1288.6 ± 2.3	–
303.15 K, x2 = 0.1004	–	–	2.171 ± 0.021
303.15 K, x2 = 0.2	911.94 ± 0.48	–	–
303.15 K, x2 = 0.2003	–	1286.3 ± 2.3	–
303.15 K, x2 = 0.2155	–	–	1.85 ± 0.018
303.15 K, x2 = 0.299	–	–	1.635 ± 0.016
303.15 K, x2 = 0.3	924.13 ± 0.5	–	–
303.15 K, x2 = 0.3003	–	1283.6 ± 2.3	–
303.15 K, x2 = 0.3996	–	–	1.399 ± 0.013
303.15 K, x2 = 0.4	938.41 ± 0.51	–	–
303.15 K, x2 = 0.4005	–	1281.1 ± 2.3	–
303.15 K, x2 = 0.4495	–	–	1.292 ± 0.012
303.15 K, x2 = 0.5	955.38 ± 0.53	–	–
303.15 K, x2 = 0.5002	–	1279.2 ± 2.3	1.191 ± 0.011
303.15 K, x2 = 0.5482	–	–	1.102 ± 0.01
303.15 K, x2 = 0.5993	–	–	1.01 ± 0.01
303.15 K, x2 = 0.6	975.84 ± 0.55	1278.5 ± 2.3	–
303.15 K, x2 = 0.6998	–	–	0.858 ± 0.008
303.15 K, x2 = 0.7	1000.85 ± 0.58	1279.5 ± 2.3	–
303.15 K, x2 = 0.7994	–	–	0.738 ± 0.007
303.15 K, x2 = 0.7999	–	1282.9 ± 2.3	–
303.15 K, x2 = 0.8002	1032.09 ± 0.61	–	–
303.15 K, x2 = 0.8999	1071.54 ± 0.64	1288.9 ± 2.3	–
303.15 K, x2 = 0.9005	–	–	0.648 ± 0.007
303.15 K, x2 = 0.9436	–	–	0.619 ± 0.006
303.15 K, x2 = 0.95	–	1293.2 ± 2.4	–
303.15 K, x2 = 0.9503	1095.83 ± 0.66	–	–
308.15 K, x2 = 0	887.83 ± 0.46	1273.5 ± 2.3	2.079 ± 0.022
308.15 K, x2 = 0.05	891.97 ± 0.47	–	–
308.15 K, x2 = 0.0501	–	–	1.967 ± 0.021
308.15 K, x2 = 0.0507	–	1273.1 ± 2.3	–
308.15 K, x2 = 0.0999	896.44 ± 0.48	–	–
308.15 K, x2 = 0.1001	–	1272.2 ± 2.3	–
308.15 K, x2 = 0.1048	–	–	1.844 ± 0.019
308.15 K, x2 = 0.198	–	–	1.639 ± 0.017
308.15 K, x2 = 0.2	906.69 ± 0.49	–	–
308.15 K, x2 = 0.2003	–	1270.2 ± 2.3	–
308.15 K, x2 = 0.3	918.65 ± 0.51	–	–
308.15 K, x2 = 0.3003	–	1267.9 ± 2.3	–
308.15 K, x2 = 0.3012	–	–	1.427 ± 0.014
308.15 K, x2 = 0.3999	–	–	1.243 ± 0.012
308.15 K, x2 = 0.4	932.71 ± 0.52	–	–
308.15 K, x2 = 0.4005	–	1265.9 ± 2.3	–
308.15 K, x2 = 0.4502	–	–	1.154 ± 0.011
308.15 K, x2 = 0.4998	–	–	1.071 ± 0.011
308.15 K, x2 = 0.5	949.47 ± 0.54	–	–
308.15 K, x2 = 0.5002	–	1264.2 ± 2.3	–
308.15 K, x2 = 0.5499	–	–	0.991 ± 0.01
308.15 K, x2 = 0.5998	–	–	0.917 ± 0.009
308.15 K, x2 = 0.6	969.67 ± 0.56	1263.4 ± 2.3	–
308.15 K, x2 = 0.6994	–	–	0.786 ± 0.008
308.15 K, x2 = 0.7	994.45 ± 0.58	1264.3 ± 2.3	–
308.15 K, x2 = 0.7997	–	–	0.685 ± 0.007
308.15 K, x2 = 0.7999	–	1267.3 ± 2.3	–
308.15 K, x2 = 0.8002	1025.45 ± 0.62	–	–
308.15 K, x2 = 0.8986	–	–	0.616 ± 0.007
308.15 K, x2 = 0.8999	1064.77 ± 0.65	1273.2 ± 2.3	–
308.15 K, x2 = 0.9465	–	–	0.59 ± 0.006
308.15 K, x2 = 0.95	–	1276.9 ± 2.3	–
308.15 K, x2 = 0.9503	1089.08 ± 0.67	–	–
313.15 K, x2 = 0	883.59 ± 0.46	1257.7 ± 2.3	1.689 ± 0.02
313.15 K, x2 = 0.05	887.43 ± 0.47	–	–
313.15 K, x2 = 0.0507	–	1257.4 ± 2.3	–
313.15 K, x2 = 0.0511	–	–	1.606 ± 0.019
313.15 K, x2 = 0.0999	891.75 ± 0.47	–	–
313.15 K, x2 = 0.1001	–	1256.8 ± 2.3	–
313.15 K, x2 = 0.1135	–	–	1.493 ± 0.018
313.15 K, x2 = 0.2	901.79 ± 0.48	–	–
313.15 K, x2 = 0.2003	–	1254.9 ± 2.3	–
313.15 K, x2 = 0.2156	–	–	1.314 ± 0.016
313.15 K, x2 = 0.2993	–	–	1.18 ± 0.014
313.15 K, x2 = 0.3	913.58 ± 0.49	–	–
313.15 K, x2 = 0.3003	–	1252.7 ± 2.3	–
313.15 K, x2 = 0.3971	–	–	1.042 ± 0.012
313.15 K, x2 = 0.4	927.46 ± 0.49	–	–
313.15 K, x2 = 0.4005	–	1250.6 ± 2.3	–
313.15 K, x2 = 0.4497	–	–	0.974 ± 0.011
313.15 K, x2 = 0.4973	–	–	0.915 ± 0.01
313.15 K, x2 = 0.5	943.98 ± 0.5	–	–
313.15 K, x2 = 0.5002	–	1248.8 ± 2.3	–
313.15 K, x2 = 0.5458	–	–	0.858 ± 0.009
313.15 K, x2 = 0.5989	–	–	0.798 ± 0.009
313.15 K, x2 = 0.6	963.96 ± 0.51	1248 ± 2.3	–
313.15 K, x2 = 0.6958	–	–	0.698 ± 0.008
313.15 K, x2 = 0.7	988.46 ± 0.52	1248.7 ± 2.3	–
313.15 K, x2 = 0.7999	–	1251.4 ± 2.3	–
313.15 K, x2 = 0.8002	1018.86 ± 0.54	–	–
313.15 K, x2 = 0.8004	–	–	0.617 ± 0.007
313.15 K, x2 = 0.893	–	–	0.572 ± 0.006
313.15 K, x2 = 0.8999	1057.69 ± 0.6	1256.3 ± 2.3	–
313.15 K, x2 = 0.9491	–	–	0.556 ± 0.006
313.15 K, x2 = 0.95	–	1259.5 ± 2.3	–
313.15 K, x2 = 0.9503	1081.78 ± 0.64	–	–
